{"source": "patent US8507724B2", "about": "(priority 2008, dated 2013)", "assay": "in vivo", "format": "in vivo", "settings": "rat", "procedure": "[…] Whole blood samples were taken from a lateral tail vein for plasma separation at time points 0 min, 30 min, 1 h, 2 h and 4 h after p.o. dosing; and 0 min, 15 min, 30 min, 1 h, and 2 h after i.v. dosing, while the terminal samples at time point 6 h after dosing (p.o and Lv.) were taken by cardiac puncture. All time points were taken from a single rat, and all experiments were carried out in triplicate.\nThe samples were thawn at room temperature and prepared by protein precipitation with ratio 1:2 of plasma and acetonitrile and were centrifuged 10 minutes at 16 100×g (Eppendorf 5415D, Eppendorf AG, Hamburg, Germany) before injection to UPLCIMSMS system. The standard samples were prepared similarly, after spiking blank plasma samples to 0.5, 2, 5, 10, 20, 50, 200, 500, 1000 and 2000 ng/ml of the analyte compounds.\nThe pharmacokinetic parameters for study compounds were calculated by WinNonlin Pro (Pharsight Corp, CA) using standard noncompartmental methods. The volume of distribution (Vd) was based on the terminal phase. The elimination phase half-life (t1/2) was calculated by least-squares regression analysis of the terminal linear part of the log concentration-time curve. The area under the plasma concentration-time curve (AUC) was determined by use of the linear trapezoidal rule up to the last measurable concentration and thereafter by extrapolation of the terminal elimination phase to infinity. The area under the plasma concentration-time curve without terminal extrapolation is reported as AUC 0-6 h. The mean residence time (MRT) representing the average amount of time a compound remains in a compartment or system was calculated extrapolating the drug concentration profile to infinity. The maximum plasma concentration (cmax) and the time to cmax (tmax) were derived directly from the plasma concentration data. The tentative oral bioavailability (F) was calculated by dividing the AUC after p.o. administration by the AUC after i.v. administration taking into account the differences in dose, i.e. F=AUC(p.o.)/Dose(p.o.)/AUC(i.v)/[…], and reported as percentages (%).\nA Waters Acquity chromatographic system (Waters Corp., Milford, Mass., USA) with autosampler, vacuum degasser and column oven was used. The analytical column used for all compounds was a Waters BEH ShieldRP18, (2.1×50 mm, 1.7 μm, Waters Corp, Milford, Mass., USA) together with an on-line filter. The eluents were 0.1% acetic acid (A, pH 3.2) and acetonitrile (B). A linear gradient elution from 5% B to 35% B in 0-2 minutes, from 35% B to 85% B in 2.0-3.0 min was employed, followed by 1 min isocratic elution with […] and column equilibration. The flow rate was 0.5 ml/min and the column oven temperature was 35° C. LC/MS/MS/data was acquired with a Micromass Quattro Premier triple quadrupole mass spectrometer equipped with a LockSpray electrospray ionization source. A negative ion mode ionisation was used. The multiple reaction monitoring (MRM) mode of detection was used. The mass spectrometer and UPLC system were operated under Micromass MassLynx 4.1 software. Complete LC/MS/MS parameters are presented in Appendix I.\nDetection/quantitation limits between 2 ng/ml and 10 ng/ml in plasma were obtained for each compound. Calibration curves for quantification were generated by fitting the ratio of the external standard peak areas as a function of the concentration, excluding the point of origin and using 1/x weighting and linear or quadratic fitting. The ranges up to 2000 ng/ml were fitted for calibration curves. […] The overall precisions 12.0-17.0% were calculated from the standard samples (two injection/concentration), using Snedecor equation S=(Σd^2/2n)^0.5, in which S=precision, d is the difference between duplicates expressed as % of the mean value, and N is the number of standard concentration. The concentrations of each study compound in the samples are shown in the Appendices IV-VI.", "key": {"[1]": {"settings": "2 mg/kg i.v., individual animals, 2 mg/kg"}, "[2]": {"settings": "in vivo, iv, 2 mg/kg, 2 mg/kg i.v., individual animals, read-out: t1/2"}, "[3]": {"settings": "in vivo, iv, 2 mg/kg, i.v. 2 mg/kg, mean n=3, read-out: t1/2"}, "[4]": {"settings": "20 mg/kg p.o., individual animals, 20 mg/kg"}}, "note": "Where “and” joins values, the source holds several entries; their conditions need not be identical. Equal values may be shown once. Read-outs that look alike come from different tables or passages of the source."}
{"smiles": "CC(C)c1cc(-c2ccc(Cl)cc2)cc(C(C)C)c1O", "note": "[4-(p-Cl—Ph)-propofol, 4-(para-Chlorophenyl)-propofol]", "values": [{"measurement": "bioavailability", "setting": "plasma, po, 20 mg/kg p.o. vs 2 mg/kg i.v., read-out: F (%) tentative oral bioavailability", "value": 0, "unit": "%"}, {"measurement": "tmax", "setting": "2 mg/kg i.v., individual animals", "value": 0.25, "unit": "h"}, {"measurement": "AUC", "setting": "[1]", "value": "36.3 µg·min/mL and 40.8 µg·min/mL and 68.8 µg·min/mL"}, {"measurement": "CL/F", "setting": "[1]", "value": "55.1 mL/min/kg and 49.1 mL/min/kg and 29.1 mL/min/kg"}, {"measurement": "MRT", "setting": "[1]", "value": "1.51 h and 0.782 h"}, {"measurement": "cmax", "setting": "[1]", "value": "0.46 µg/mL and 0.78 µg/mL"}, {"measurement": "t1/2", "setting": "[1]", "value": "1.54 h and 1.78 h"}, {"measurement": "ADC 0-6 h", "setting": "i.v. 2 mg/kg, mean n=3", "value": 46.6, "unit": "µg·min/mL"}, {"measurement": "AUC", "setting": "i.v. 2 mg/kg, mean n=3", "value": 48.6, "unit": "µg·min/mL"}, {"measurement": "CL/F", "setting": "i.v. 2 mg/kg, mean n=3", "value": 44.4, "unit": "mL/min/kg"}, {"measurement": "clearance (in words)", "setting": "i.v. dosing, compared to rat liver blood flow", "value": "in the range of hepatic blood flow"}, {"measurement": "half-life", "setting": "[2]", "value": 1.52, "unit": "h"}, {"measurement": "half-life", "setting": "[3]", "value": 1.61, "unit": "h"}, {"measurement": "concentration in plasma", "setting": "iv (2 mg/kg), 15 min, individual animals, listed as CK2-3, 2 mg/kg", "value": "398 ng/mL and 456 ng/mL"}, {"measurement": "concentration in plasma", "setting": "iv (2 mg/kg), 30 min, individual animals, listed as CK2-3, 2 mg/kg", "value": "123 ng/mL and 187 ng/mL and 307 ng/mL"}, {"measurement": "concentration in plasma", "setting": "iv (2 mg/kg), 1 h, individual animals, listed as CK2-3, 2 mg/kg", "value": "149 ng/mL and 156 ng/mL"}, {"measurement": "concentration in plasma", "setting": "iv (2 mg/kg), 2 h, individual animals, listed as CK2-3, 2 mg/kg", "value": "62.4 ng/mL and 74.2 ng/mL"}, {"measurement": "concentration in plasma", "setting": "iv (2 mg/kg), 6 h, individual animals, listed as CK2-3, 2 mg/kg", "value": "14.6 ng/mL and 14.9 ng/mL"}, {"measurement": "detection in plasma after oral (p.o.) administration", "value": "detected in plasma only after i.v. administration"}, {"measurement": "detection in plasma after oral (p.o.) administration", "setting": "listed as CK-2-3", "value": "not detected"}, {"measurement": "half-life", "setting": "plasma, iv, 2 mg/kg, i.v. administration, read-out: half life (converted)", "value": "~1.5", "unit": "h"}, {"measurement": "concentration at 15 min", "setting": "plasma, iv, 2 mg/kg, iv (2 mg/kg), 15 min, individual animals", "value": 784, "unit": "ng/mL"}, {"measurement": "concentration at 1 h", "setting": "plasma, iv, 2 mg/kg, iv (2 mg/kg), 1 h, individual animals", "value": 79.7, "unit": "ng/mL"}, {"measurement": "concentration at 2 h", "setting": "plasma, iv, 2 mg/kg, iv (2 mg/kg), 2 h, individual animals", "value": 63.9, "unit": "ng/mL"}, {"measurement": "concentration at 6 h", "setting": "plasma, iv, 2 mg/kg, iv (2 mg/kg), 6 h, individual animals", "value": 13.1, "unit": "ng/mL"}]}
{"smiles": "CC(C)c1cc(-c2ccc(Cl)c(F)c2)cc(C(C)C)c1O", "note": "[p-(3-F,4-Cl—Ph)-propofol, Para-(3-Fluoro,4-chlorophenyl)-propofol]", "values": [{"measurement": "CL/F", "setting": "[1]", "value": "24.9 mL/min/kg and 30.4 mL/min/kg and 32.5 mL/min/kg"}, {"measurement": "t1/2", "setting": "[1]", "value": "1.53 h and 1.65 h"}, {"measurement": "CL/F", "setting": "[4]", "value": "153 mL/min/kg and 434 mL/min/kg and 105 mL/min/kg"}, {"measurement": "t1/2", "setting": "[4]", "value": "7.8 h and 18.5 h and 13.1 h"}, {"measurement": "CL/F", "setting": "i.v. 2 mg/kg, mean n=3", "value": 29.3, "unit": "mL/min/kg"}, {"measurement": "bioavailability", "setting": "in vivo", "value": "~18", "unit": "%"}, {"measurement": "clearance (in words)", "setting": "in vivo, iv", "value": "intermediate"}, {"measurement": "half life (in words)", "setting": "in vivo, iv", "value": "intermediate"}, {"measurement": "ADC 0-6 h", "setting": "in vivo, iv, 2 mg/kg", "value": 64.1, "unit": "µg·min/mL"}, {"measurement": "tmax", "setting": "in vivo, iv, 2 mg/kg", "value": 0.25, "unit": "h"}, {"measurement": "half-life", "setting": "[2]", "value": 1.36, "unit": "h"}, {"measurement": "half-life", "setting": "[3]", "value": 1.52, "unit": "h"}, {"measurement": "concentration at 30 min", "setting": "in vivo, iv, 2 mg/kg, iv (2 mg/kg), 30 min, individual animals, read-out: concentration in plasma", "value": 444, "unit": "ng/mL"}, {"measurement": "concentration at 1 h", "setting": "in vivo, iv, 2 mg/kg, iv (2 mg/kg), 1 h, individual animals, read-out: concentration in plasma", "value": 316, "unit": "ng/mL"}, {"measurement": "concentration at 2 h", "setting": "in vivo, iv, 2 mg/kg, iv (2 mg/kg), 2 h, individual animals, read-out: concentration in plasma", "value": 90.3, "unit": "ng/mL"}, {"measurement": "concentration at 6 h", "setting": "in vivo, iv, 2 mg/kg, iv (2 mg/kg), 6 h, individual animals, read-out: concentration in plasma", "value": 24.1, "unit": "ng/mL"}, {"measurement": "ADC 0-6 h", "setting": "in vivo, po, 20 mg/kg", "value": 34.6, "unit": "µg·min/mL"}, {"measurement": "CL", "setting": "in vivo, po, 20 mg/kg", "value": 41.1, "unit": "mL/min/kg"}, {"measurement": "Tmax", "setting": "in vivo, po, 20 mg/kg", "value": 0.5, "unit": "h"}, {"measurement": "Vd", "setting": "in vivo, po, 20 mg/kg", "value": 54.4, "unit": "L/kg"}, {"measurement": "bioavailability", "setting": "in vivo, po, 20 mg/kg", "value": 17.8, "unit": "%"}, {"measurement": "tmax", "setting": "in vivo, po, 20 mg/kg", "value": 0.5, "unit": "h"}, {"measurement": "Vd/F", "setting": "in vivo, po, 20 mg/kg, p.o. 20 mg/kg, mean n=3", "value": 306, "unit": "L/kg"}, {"measurement": "CL/F", "setting": "in vivo, po, 20 mg/kg, p.o. 20 mg/kg, mean n=3, read-out: CL/F", "value": 231, "unit": "mL/min/kg"}, {"measurement": "half-life", "setting": "in vivo, po, 20 mg/kg, p.o. 20 mg/kg, mean n=3, read-out: t1/2", "value": 13.2, "unit": "h"}, {"measurement": "concentration in plasma", "setting": "iv (2 mg/kg), 15 min, individual animals, listed as CK2-9, 2 mg/kg", "value": "1100 ng/mL and 689 ng/mL and 535 ng/mL"}, {"measurement": "concentration in plasma", "setting": "iv (2 mg/kg), 30 min, individual animals, listed as CK2-9, 2 mg/kg", "value": "499 ng/mL and 513 ng/mL"}, {"measurement": "concentration in plasma", "setting": "iv (2 mg/kg), 1 h, individual animals, listed as CK2-9, 2 mg/kg", "value": "329 ng/mL and 297 ng/mL"}, {"measurement": "concentration in plasma", "setting": "iv (2 mg/kg), 2 h, individual animals, listed as CK2-9, 2 mg/kg", "value": "74.0 ng/mL and 81.3 ng/mL"}, {"measurement": "concentration in plasma", "setting": "iv (2 mg/kg), 6 h, individual animals, listed as CK2-9, 2 mg/kg", "value": "44.0 ng/mL and 46.6 ng/mL"}, {"measurement": "detection in plasma after oral (p.o.) administration", "value": "observed in plasma"}, {"measurement": "concentration in plasma", "setting": "po (20 mg/kg), 30 min, individual animals, listed as CK2-9, 20 mg/kg", "value": "172 ng/mL and 213 ng/mL and 63.0 ng/mL"}, {"measurement": "concentration in plasma", "setting": "po (20 mg/kg), 1 h, individual animals, listed as CK2-9, 20 mg/kg", "value": "182 ng/mL and 26.6 ng/mL and 121 ng/mL"}, {"measurement": "concentration in plasma", "setting": "po (20 mg/kg), 2 h, individual animals, listed as CK2-9, 20 mg/kg", "value": "134 ng/mL and 26.2 ng/mL and 168 ng/mL"}, {"measurement": "concentration in plasma", "setting": "po (20 mg/kg), 4 h, individual animals, listed as CK2-9, 20 mg/kg", "value": "21.5 ng/mL and 97.6 ng/mL"}, {"measurement": "concentration in plasma", "setting": "po (20 mg/kg), 6 h, individual animals, listed as CK2-9, 20 mg/kg", "value": "121 ng/mL and 22.9 ng/mL and 128 ng/mL"}]}
